Measurements as given in patent US8506997B2, “Pharmaceutical compound containing silymarin and carbopol, its manufacturing process and its use as a regenerator of the pancreatic tissue and cells of endogenous secretion damaged by diabetes mellitus” (Universidad Autonoma Metropolitana, priority 2002, dated 2013).

What was measured:
Assay type in all cases: in vivo
serum glucose = assay: Determination of serum glucose (ortho-toluidine method) in Alloxan-induced Diabetes Mellitus; conditions: 20 days after Alloxan, before starting the treatment with the Silymarin and Carbopol compound
Method: (§1) The treatment of the Silymarin and Carbopol combined with Alloxan was done in two ways. In the first case, a dose of 200 mg/Kg of the Silymarin and Carbopol compound was administered orally at 6, 24 and 48 hours (two days) after the first dose. In the second case, in addition to the dose mentioned in the first case, the administration was prolonged every 24 hours after the first dose for five more days (seven days). In both cases, the dose of Alloxan was 150 mg/Kg, which was administered subcutaneously one hour after the first dose of the Silymarin and Carbopol compound.
The determination of blood glucose was carried out by the Baner method. This consisted in taking 50 μl of serum to which 3.0 ml of ortho-toluidine reagent were added which reacts with aldohexoses and forms […] and a Schiff base, the green color developed has a maximum absorption at 620 nm and is proportional to the quantity of glucose present.
In the case of the combined administration of the Silymarin and Carbopol compound with Alloxan, the determination of serum glucose was done before the administration of the drugs and at 3, 5, 15 and 30 days after the treatment. […]

pancreatic tissue = assay: Histopathological analysis of the pancreatic tissue (HE staining); conditions: treatment with Alloxan only
Method: as §1
This analysis was done in transversal fragments of pancreas approximately 0.7 cm long corresponding to the head of the organ. Subsequently, by the paraffin embedding technique, 5 μm sections where then obtained, which were stained with the dyes hematoxylin and eosin (HE). This technique consists in: 1) dehydration of the tissue, which is done by passing the tissue through different concentration of alcohol (from 25 to 100%) and then to an alcohol-toluene, toluene-paraffin and paraffin mixture. Once the tissues are dehydrated, blocks are formed with paraffin. 2) Sectioning of the tissue. This is done in a microtome, which is adjusted to the right section thickness of 4 to 6 μm and is placed in a slide. 3) Staining of the sections. This was done with the dyes hematoxylin and eosin. […]

islets of Langerhans = assay: Immunohistochemical analysis for insulin and glucagon in the islets of Langerhans by confocal microscopy; conditions: treatment with Alloxan only (FIG. 1)
Method: as §1
This analysis is carried out on sections of pancreatic tissue (corresponding to the head of the pancreas). Once the sections have been obtained (described in example 3) they are placed on a slide and the tissue is then deparaffinated and rehydrated. It is begun in pure xylol, with two changes of 10 minutes each. The samples are then passed to a mixture of ethanol-xylol for 10 minutes and afterward to alcohols of different percentages: 100, 90, 80 and 70% for five minutes each. […] At the end of this time, they are flushed with PBS and incubated in a mixture of secondary antibodies coupled with fluorochromes, fluorescein and rhodamine, for one hour at ambient temperature and they are then mounted in a specific medium to preserve the fluorescence. The samples are analyzed by confocal microscopy. […]

glutathione peroxidase = assay: Activity of pancreatic antioxidant enzymes: glutathione peroxidase; conditions: pancreas; Alloxan (20 days after its administration)
Method: (§2) A determination was made of the pancreatic activity of the antioxidant enzymes: superoxide dismutase, glutathione peroxidase and catalase. To do such determination, the pancreas was weighed, it was homogenized with a phosphate buffer 50 mM, it was centrifuged at 3000 rpm, and the supernatant was separated. The activities of the aforementioned enzymes was determined in this.
Glutathione peroxidase.—This quantification was done by the method of Prasad et al. (1992). This enzyme catalyzes the breakdown of H2O2 by the NADPH. Its activity is measured by the velocity of absorbance change during the conversion of NADPH to NADP^+ and this may be spectrophotometrically registered at […].

superoxide dismutase = assay: Activity of pancreatic antioxidant enzymes: superoxide dismutase; conditions: pancreas; Alloxan (20 days after its administration)
Method: as §2
Superoxide dismutase.—This quantification was done by the method of Prasad et al. (1992). Superoxide ions are formed by xanthine and xanthine oxidase. These ions react with the tetrazolium blue and they form a colour compound that can be spectrophotometrically quantified at 560 nm. A unit of superoxide dismutase can inhibit the formation of this compound by 50%.

catalase = assay: Activity of pancreatic antioxidant enzymes: catalase; conditions: pancreas; Alloxan (20 days after its administration)
Method: as §2
Catalase.—This quantification was carried out by the Aebi method (1995). This enzyme catalyzes the breakdown of H2O2 and the decomposition velocity of the oxygenated water is measured spectrophotometrically at 240 nm.

Compound: O=C1NC(=O)C(=O)C(=O)N1 [Alloxan]
- serum glucose concentration above the normal value (serum glucose): approximately 400%
- histopathology of the pancreatic tissue (pancreatic tissue): cellular disorganization with loss of the islets of Langerhans
- pancreatic islet, insulin and glucagon immunostaining (islets of Langerhans): destruction occurred of the pancreatic islet
- Enzymatic activity Glutathione Peroxidase (glutathione peroxidase): 0.016 ± .002 μM NADPH/min/mg prot
- Enzymatic activity Superoxide Dismutase (superoxide dismutase): 4.3 ± 0.02 U/mg protein.
- Enzymatic activity Catalase (catalase): 0.01 ± 0.002 k/sec/mg of protein
